Laboratory results taken from ChEMBL document CHEMBL1201862, “PubChem BioAssay data set” (2004).
Activity calls are given as the source filed them.

What was measured:
[1] = target: Aryl hydrocarbon receptor (Homo sapiens, UniProt P35869); details: Potency;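 also: confirmatory quantitative high-throughput screen measuring activation of the AhR signaling pathway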
Insulin-degrading enzyme [2] = target: T1, Insulin-degrading enzyme (Homo sapiens, UniProt P14735); assay: activators of recombinant IDE enzyme, dose response, counter-screen for IDE activator project, biochemical, fluorescence polarization (AID 588681)
T1 sequence (P14735 whole entry): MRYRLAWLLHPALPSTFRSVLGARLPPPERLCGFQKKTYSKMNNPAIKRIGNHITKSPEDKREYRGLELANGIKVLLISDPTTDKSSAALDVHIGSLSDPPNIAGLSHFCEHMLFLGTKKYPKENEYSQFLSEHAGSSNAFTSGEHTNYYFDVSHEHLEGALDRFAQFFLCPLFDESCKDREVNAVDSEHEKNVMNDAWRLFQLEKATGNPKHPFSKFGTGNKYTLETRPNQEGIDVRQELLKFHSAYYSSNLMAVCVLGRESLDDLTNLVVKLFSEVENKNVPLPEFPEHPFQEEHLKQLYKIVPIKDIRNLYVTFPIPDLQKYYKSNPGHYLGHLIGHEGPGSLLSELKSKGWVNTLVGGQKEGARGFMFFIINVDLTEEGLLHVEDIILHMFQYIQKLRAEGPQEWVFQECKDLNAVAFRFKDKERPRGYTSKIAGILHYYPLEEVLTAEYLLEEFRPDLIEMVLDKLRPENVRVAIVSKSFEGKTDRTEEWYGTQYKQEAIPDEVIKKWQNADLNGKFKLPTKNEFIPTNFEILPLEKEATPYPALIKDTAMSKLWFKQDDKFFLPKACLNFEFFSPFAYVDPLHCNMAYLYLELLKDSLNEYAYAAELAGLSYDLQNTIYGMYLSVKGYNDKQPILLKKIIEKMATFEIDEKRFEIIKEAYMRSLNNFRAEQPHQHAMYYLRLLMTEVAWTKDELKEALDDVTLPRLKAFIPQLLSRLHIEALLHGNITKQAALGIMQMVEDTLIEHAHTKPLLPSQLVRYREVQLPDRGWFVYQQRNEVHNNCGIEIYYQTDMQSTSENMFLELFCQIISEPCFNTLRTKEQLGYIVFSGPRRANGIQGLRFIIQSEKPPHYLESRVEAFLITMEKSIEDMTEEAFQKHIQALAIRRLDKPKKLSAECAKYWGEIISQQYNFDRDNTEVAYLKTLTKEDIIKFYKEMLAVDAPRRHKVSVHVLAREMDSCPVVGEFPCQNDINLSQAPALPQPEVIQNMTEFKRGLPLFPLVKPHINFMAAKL

Insulin-degrading enzyme [3] = target: T1, Insulin-degrading enzyme; assay: activators of endogenous IDE in HEK cells, dose response, cell-based, fluorescence polarization (AID 588439); type: functional
HEK293 [4] = assay: HEK cell cytotoxicity by LDH release, dose response, cytotoxicity control for IDE activator project, fluorescence, HEK cells (AID 588440); type: functional, cell-based; details: Homo sapiens;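 also: cytotoxicity by LDH release measuring loss of membrane integrity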
HEK293 [5] = assay: optical interference in Abeta FP readout, dose response, artefact control for IDE activator project, biochemical, fluorescence polarization (AID 588442); type: functional, cell-based; details: Homo sapiens
Beta Lactamase = Beta Lactamase (Pseudomonas aeruginosa, UniProt Q932Y6);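 also: confirmatory high-throughput screen measuring VIM-2 metallo-beta-lactamase inhibition by epi-absorbance in dose response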
Beta-lactamase [6] = target: Beta-lactamase (Pseudomonas aeruginosa, UniProt Q79MP6);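 also: biochemical dose-response test of metallo-beta-lactamase enzyme inhibition, read out by epi-absorbance; purified recombinant IMP-1 metallo-beta-lactamase with nitrocefin as substrate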
Beta-lactamase [7] = target: Beta-lactamase (Salmonella choleraesuis (strain SC-B67), UniProt Q5J463)
[8] = AlphaScreen signal interference compounds, dose response, artefact control for ARNT-TACC3 interaction inhibitor project, biochemical, luminescence, cherry-pick (AID 651705); type: functional;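 also: AlphaScreen bead proximity signal that flags compounds interfering with the detection technology; potency reflects signal decrease which marks the compound as an assay artifact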
[9] = target: Peroxisome proliferator-activated receptor gamma/Nuclear receptor coactivator 2 (Homo sapiens, UniProt P37231); type: functional;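 also: agonist potency for raising coactivator recruitment to the receptor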
[10] = target: Peroxisome proliferator-activated receptor gamma/Nuclear receptor coactivator 1 (Homo sapiens, UniProt P37231); type: functional;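 also: agonist potency as compounds enhance coactivator SRC-1 recruitment to PPARgamma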
[11] = target: Peroxisome proliferator-activated receptor gamma/Nuclear receptor coactivator 3 (Homo sapiens, UniProt P37231); type: functional;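 also: agonist potency for raising coactivator recruitment to the receptor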
CHO-K1 = assay: (§1) Counterscreen for antagonists of the orexin 1 receptor (OX1R; HCRTR1): Homogeneous time resolved fluorescence (HTRF)-based cell-based dose response assay to identify antagonists of the parental CHO-K1 cell line. [Related pubchem assays (depositor defined):AID434989, AID435008, AID463079, AID485270, AID492963, AID492964, AID492965, AID493232, AID504699, AID504701]; type: functional; details: Cricetulus griseus
[12] = as §1, with “Fluorescence-based” for “Homogeneous time resolved fluorescence (HTRF)-based”, “cell-based high throughput” for “cell-based”, “CHO” for “CHO-K1”; type: functional
[13] = target: T2, Orexin/Hypocretin receptor type 1 (Homo sapiens, UniProt O43613); assay: Homogeneous Time Resolved Fluorescence (HTRF)-based cell-based high throughput dose response assay for antagonists of the orexin 1 receptor (OX1R; HCRTR1). [Related pubchem assays (depositor defined):AID434989, AID435008, AID463079, AID485270, AID492963, AID492964, AID492965, AID493232, AID504717, AID504718]; type: functional
T2 sequence (O43613 whole entry): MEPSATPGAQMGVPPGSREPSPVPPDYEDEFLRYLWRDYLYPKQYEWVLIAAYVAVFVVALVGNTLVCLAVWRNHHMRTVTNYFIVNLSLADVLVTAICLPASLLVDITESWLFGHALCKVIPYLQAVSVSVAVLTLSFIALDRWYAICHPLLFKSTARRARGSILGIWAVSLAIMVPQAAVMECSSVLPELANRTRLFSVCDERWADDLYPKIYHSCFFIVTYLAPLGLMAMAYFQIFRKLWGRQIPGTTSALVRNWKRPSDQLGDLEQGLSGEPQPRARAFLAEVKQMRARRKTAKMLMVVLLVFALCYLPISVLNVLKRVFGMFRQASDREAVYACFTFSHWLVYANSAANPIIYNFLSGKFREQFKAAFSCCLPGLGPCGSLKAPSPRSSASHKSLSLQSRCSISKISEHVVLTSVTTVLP

[14] = target: T2, Orexin/Hypocretin receptor type 1; assay: Fluorescence-based cell-based high throughput dose response assay for antagonists of the orexin 1 receptor (OX1R; HCRTR1). [Related pubchem assays (depositor defined):AID434989, AID435008, AID463079, AID485270, AID492963, AID492964, AID492965, AID493232, AID504717, AID504718]; type: functional
Orexin receptor type 2 [15] = target: T3, Orexin receptor type 2 (Homo sapiens, UniProt O43614); assay: Counterscreen assay for antagonists of the orexin 1 receptor (OX1R; HCRTR1): Fluorescence-based cell-based dose response assay for antagonists of the orexin 2 receptor (OX2R; HCRTR2), run by assay provider.; type: functional
T3 sequence (O43614 whole entry): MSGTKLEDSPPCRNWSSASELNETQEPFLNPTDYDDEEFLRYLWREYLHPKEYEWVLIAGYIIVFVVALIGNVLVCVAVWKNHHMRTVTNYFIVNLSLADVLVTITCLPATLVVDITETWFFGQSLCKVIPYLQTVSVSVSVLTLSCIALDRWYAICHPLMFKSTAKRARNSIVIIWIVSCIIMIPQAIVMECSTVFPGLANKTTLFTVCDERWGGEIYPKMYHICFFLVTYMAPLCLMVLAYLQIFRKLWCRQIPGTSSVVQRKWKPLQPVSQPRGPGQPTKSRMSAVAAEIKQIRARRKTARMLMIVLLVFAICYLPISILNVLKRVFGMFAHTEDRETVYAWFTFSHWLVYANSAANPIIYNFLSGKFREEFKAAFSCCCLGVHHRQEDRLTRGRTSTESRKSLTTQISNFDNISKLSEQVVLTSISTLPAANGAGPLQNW

Orexin receptor type 2 [16] = target: T3, Orexin receptor type 2; assay: Counterscreen assay for antagonists of the orexin 1 receptor (OX1R; HCRTR1): Homogeneous Time Resolved Fluorescence (HTRF)-based cell-based dose response assay for antagonists of the orexin 2 receptor (OX2R; HCRTR2), run by assay provider.; type: functional
[17] = target: T4, Probable nicotinate-nucleotide adenylyltransferase (Staphylococcus aureus (strain N315), UniProt P65502); type: functional, Staphylococcus aureus subsp. aureus N315;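 as to IC50 Mean: confirmatory dose-response retesting of NadD inhibitor hits first found in an ultra-high-throughput screen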
[18] = target: T4, Probable nicotinate-nucleotide adenylyltransferase; type: functional, Staphylococcus aureus subsp. aureus N315; details: read-out: IC50_Mean
[19] = ADAM10 inhibitors, peptide cleavage, dose response, biochemical, QFRET (AID 743254);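 also: ADAM10 enzyme with the DM2 quenched FRET peptide as substrate; EDANS fluorescence gain as the protease cuts the substrate; inhibitor potency against ADAM10 proteolytic activity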
[20] = target: Disintegrin and metalloproteinase domain-containing protein 17 (Homo sapiens, UniProt P78536); assay: ADAM17 protease inhibitors, dose response, counter-screen for ADAM10 exosite inhibitor project, biochemical, quenched FRET substrate (AID 743253)
[21] = Luminescence Cell-Based Dose Retest to Confirm Inhibitors of Cancer Stem Cells. [Related pubchem assays (depositor defined):AID2717, AID2721]; type: functional; details: Homo sapiens
[22] = target: Neurotensin receptor type 1 (Homo sapiens, UniProt P30989); type: functional;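 also: Image-based confirmatory dose-response assay measuring agonist activity at NTR1; NTR1-expressing U2OS osteosarcoma cells imaged for beta-arrestin GFP spot formation; agonist potency where compounds increase beta-arrestin recruitment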
[23] = Shn3 3'UTR reporter inhibitors, dose response, cell-based, Clone20 osteoblasts, firefly luciferase, cherry-picked (AID 624132); type: functional;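 also: firefly luciferase luminescence from reporter carrying the Shn3 3'UTR in osteoblasts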
[24] = HepG2 cell cytotoxicity, dose response, cytotoxicity control for Shn3 inhibitor project, CellTiter-Glo, cherry-picked (AID 624134); type: functional, cell-based
[25] = control 3'UTR Renilla luciferase suppression, dose response, counter-screen for Shn3 inhibitor project, cell-based, Clone20-Shn3RL, cherry-picked (AID 624133); type: functional
Protein Wnt-3a = Protein Wnt-3a (Mus musculus, UniProt P27467); assay: Wnt3a-driven reporter signaling inhibition, dose response, selectivity assay for Gli-SUFU antagonist project, Wnt-LIGHT cells, luminescence (AID 651570); type: functional; details: read-out: IC50_Mean;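 also: Wnt-LIGHT reporter cells stimulated with conditioned medium from Wnt3a-producing cells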
[26] = target: T5, Mitochondrial peptide methionine sulfoxide reductase (Bos taurus, UniProt P54149); type: functional;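 also: absorbance read-out, biochemical high-throughput dose-response screen for MsrA inhibitors, confirmatory; recombinant bovine MsrA coupled to E. coli TrxB with NADPH and selenocystamine; potency is for inhibitors of MsrA activity on DMSO substrate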
T5 sequence (P54149 whole entry): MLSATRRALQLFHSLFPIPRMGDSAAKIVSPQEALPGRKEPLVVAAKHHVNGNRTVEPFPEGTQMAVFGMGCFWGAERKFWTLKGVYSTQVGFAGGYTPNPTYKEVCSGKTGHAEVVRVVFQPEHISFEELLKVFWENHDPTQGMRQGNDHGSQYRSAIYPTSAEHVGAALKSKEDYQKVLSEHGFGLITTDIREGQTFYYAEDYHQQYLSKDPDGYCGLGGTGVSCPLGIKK

[27] = target: Nuclear receptor subfamily 5 group A member 2 (Homo sapiens, UniProt O00482); type: functional, cell-based;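 also: HEK293T cells transfected with LRH-1 and a StAR promoter luciferase reporter; potency for inhibitors that lower LRH-1 driven reporter light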
Steroidogenic factor 1 = Steroidogenic factor 1 (Homo sapiens, UniProt Q13285); assay: Counterscreen for inverse agonists of the liver receptor homolog-1 (LRH-1; NR5A2): Luminescence-based cell-based high throughput dose response assay to identify inverse agonists of the Steroidogenic Factor 1 Nuclear Receptor (SF1; NR5A1).; type: functional
[28] = StAR promoter reporter inhibition counter-screen, dose response, counter-screen for LRH-1 inverse agonist project, cell-based, luminescence, luciferase reporter (AID 651969); type: functional
[29] = target: FAD-linked sulfhydryl oxidase ALR (Homo sapiens, UniProt P55789); assay: inhibitors of human ALR sulfhydryl oxidase, dose response, biochemical, H2O2 detection, luminescence, cherry-pick (AID 493248)
[30] = target: DNA repair and recombination protein RAD54-like (Homo sapiens, UniProt Q92698); assay: inhibitors of human RAD54 branch migration, confirmation, biochemical, fluorescence, cherry-picked samples, dose series (AID 651657); type: functional
[31] = target: DNA repair protein RAD52 homolog (Homo sapiens, UniProt P43351); type: functional, biochemical
Sequence of DNA repair protein RAD52 homolog (P43351 whole entry): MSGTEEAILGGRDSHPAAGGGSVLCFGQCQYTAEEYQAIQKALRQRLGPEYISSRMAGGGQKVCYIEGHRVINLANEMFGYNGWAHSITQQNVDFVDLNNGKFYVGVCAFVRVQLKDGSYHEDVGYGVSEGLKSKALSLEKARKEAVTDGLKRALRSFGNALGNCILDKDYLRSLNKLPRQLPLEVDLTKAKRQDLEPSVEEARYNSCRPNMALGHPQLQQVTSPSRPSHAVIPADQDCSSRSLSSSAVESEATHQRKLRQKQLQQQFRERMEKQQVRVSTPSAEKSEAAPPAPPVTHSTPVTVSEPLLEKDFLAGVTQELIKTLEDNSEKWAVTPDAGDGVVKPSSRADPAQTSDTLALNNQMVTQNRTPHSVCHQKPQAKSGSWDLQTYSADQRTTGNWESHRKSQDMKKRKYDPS

T4 sequence (P65502 whole entry): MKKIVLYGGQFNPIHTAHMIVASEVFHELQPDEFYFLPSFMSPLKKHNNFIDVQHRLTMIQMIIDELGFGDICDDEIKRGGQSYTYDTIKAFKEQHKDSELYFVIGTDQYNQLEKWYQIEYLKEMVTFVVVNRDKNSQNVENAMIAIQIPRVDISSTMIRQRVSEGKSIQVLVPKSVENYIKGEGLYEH
Sequence of Neurotensin receptor type 1 (P30989 whole entry): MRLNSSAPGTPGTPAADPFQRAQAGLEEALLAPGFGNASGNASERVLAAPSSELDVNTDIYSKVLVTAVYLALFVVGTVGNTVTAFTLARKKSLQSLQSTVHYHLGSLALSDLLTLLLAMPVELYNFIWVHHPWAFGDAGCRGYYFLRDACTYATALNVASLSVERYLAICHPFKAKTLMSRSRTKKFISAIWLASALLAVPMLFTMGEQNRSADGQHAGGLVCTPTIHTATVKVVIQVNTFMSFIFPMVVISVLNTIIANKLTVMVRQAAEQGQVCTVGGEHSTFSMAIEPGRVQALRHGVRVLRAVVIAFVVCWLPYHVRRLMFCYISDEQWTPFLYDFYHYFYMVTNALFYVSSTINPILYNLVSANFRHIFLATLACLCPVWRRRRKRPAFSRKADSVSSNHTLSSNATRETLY
Sequence of Beta Lactamase (Q932Y6 whole entry): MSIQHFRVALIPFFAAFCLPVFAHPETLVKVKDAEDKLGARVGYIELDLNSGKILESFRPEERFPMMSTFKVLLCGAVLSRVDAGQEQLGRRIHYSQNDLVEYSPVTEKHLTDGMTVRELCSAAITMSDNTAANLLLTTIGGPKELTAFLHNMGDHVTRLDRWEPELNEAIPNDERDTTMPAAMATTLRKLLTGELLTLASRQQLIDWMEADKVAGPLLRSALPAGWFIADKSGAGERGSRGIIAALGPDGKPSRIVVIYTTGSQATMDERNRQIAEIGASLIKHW
Sequence of DNA repair and recombination protein RAD54-like (Q92698 whole entry): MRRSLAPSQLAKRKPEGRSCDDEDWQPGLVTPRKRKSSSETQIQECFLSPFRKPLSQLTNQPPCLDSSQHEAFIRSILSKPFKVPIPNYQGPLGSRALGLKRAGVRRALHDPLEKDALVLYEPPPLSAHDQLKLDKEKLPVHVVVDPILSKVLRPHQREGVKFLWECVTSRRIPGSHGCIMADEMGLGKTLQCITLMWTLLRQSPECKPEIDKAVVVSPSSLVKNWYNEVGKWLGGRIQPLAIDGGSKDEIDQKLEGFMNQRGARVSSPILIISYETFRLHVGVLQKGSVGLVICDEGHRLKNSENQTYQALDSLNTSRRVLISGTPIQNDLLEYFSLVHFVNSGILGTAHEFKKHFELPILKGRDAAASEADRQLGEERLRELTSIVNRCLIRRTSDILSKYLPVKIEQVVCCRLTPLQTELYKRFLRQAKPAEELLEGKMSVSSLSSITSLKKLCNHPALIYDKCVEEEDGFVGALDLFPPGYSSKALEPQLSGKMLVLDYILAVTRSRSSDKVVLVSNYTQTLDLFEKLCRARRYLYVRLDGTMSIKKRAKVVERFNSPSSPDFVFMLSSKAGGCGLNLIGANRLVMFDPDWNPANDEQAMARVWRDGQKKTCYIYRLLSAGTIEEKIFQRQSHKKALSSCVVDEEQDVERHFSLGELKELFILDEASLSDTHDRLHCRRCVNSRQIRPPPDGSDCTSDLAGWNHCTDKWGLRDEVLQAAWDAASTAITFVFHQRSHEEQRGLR
Sequence of FAD-linked sulfhydryl oxidase ALR (P55789 whole entry): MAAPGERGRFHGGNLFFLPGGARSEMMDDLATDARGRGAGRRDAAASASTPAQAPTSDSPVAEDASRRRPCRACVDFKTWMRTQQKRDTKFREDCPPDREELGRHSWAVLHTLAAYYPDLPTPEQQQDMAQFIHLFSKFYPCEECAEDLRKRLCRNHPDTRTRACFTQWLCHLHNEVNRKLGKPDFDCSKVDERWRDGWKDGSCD
Sequence of Beta-lactamase (Pseudomonas aeruginosa, UniProt Q79MP6) (Q79MP6 whole entry): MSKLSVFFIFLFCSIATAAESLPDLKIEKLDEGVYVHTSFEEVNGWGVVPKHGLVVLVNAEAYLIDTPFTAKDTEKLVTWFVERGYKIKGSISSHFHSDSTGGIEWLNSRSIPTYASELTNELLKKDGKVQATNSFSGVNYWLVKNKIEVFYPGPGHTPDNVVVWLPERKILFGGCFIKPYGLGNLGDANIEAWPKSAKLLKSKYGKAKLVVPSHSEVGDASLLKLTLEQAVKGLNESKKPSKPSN
Sequence of Protein Wnt-3a (P27467 whole entry): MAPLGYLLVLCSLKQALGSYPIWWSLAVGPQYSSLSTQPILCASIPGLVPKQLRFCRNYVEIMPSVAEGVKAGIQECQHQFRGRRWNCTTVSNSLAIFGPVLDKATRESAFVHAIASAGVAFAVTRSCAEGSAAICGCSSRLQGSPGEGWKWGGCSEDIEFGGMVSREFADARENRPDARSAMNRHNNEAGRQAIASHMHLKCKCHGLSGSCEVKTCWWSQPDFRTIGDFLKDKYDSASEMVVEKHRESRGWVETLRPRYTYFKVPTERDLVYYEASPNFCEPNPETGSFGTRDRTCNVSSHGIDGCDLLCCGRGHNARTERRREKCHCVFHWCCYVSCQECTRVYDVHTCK
Sequence of Beta-lactamase (Salmonella choleraesuis (strain SC-B67), UniProt Q5J463) (Q5J463 whole entry): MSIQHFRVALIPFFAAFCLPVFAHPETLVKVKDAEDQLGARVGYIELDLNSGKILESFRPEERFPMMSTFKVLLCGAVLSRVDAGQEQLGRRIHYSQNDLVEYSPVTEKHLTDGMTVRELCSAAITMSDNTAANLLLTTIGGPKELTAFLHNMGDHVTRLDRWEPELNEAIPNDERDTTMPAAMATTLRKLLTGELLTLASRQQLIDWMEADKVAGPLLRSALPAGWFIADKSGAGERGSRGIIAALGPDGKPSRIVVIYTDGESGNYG
Sequence of Nuclear receptor subfamily 5 group A member 2 (O00482 whole entry): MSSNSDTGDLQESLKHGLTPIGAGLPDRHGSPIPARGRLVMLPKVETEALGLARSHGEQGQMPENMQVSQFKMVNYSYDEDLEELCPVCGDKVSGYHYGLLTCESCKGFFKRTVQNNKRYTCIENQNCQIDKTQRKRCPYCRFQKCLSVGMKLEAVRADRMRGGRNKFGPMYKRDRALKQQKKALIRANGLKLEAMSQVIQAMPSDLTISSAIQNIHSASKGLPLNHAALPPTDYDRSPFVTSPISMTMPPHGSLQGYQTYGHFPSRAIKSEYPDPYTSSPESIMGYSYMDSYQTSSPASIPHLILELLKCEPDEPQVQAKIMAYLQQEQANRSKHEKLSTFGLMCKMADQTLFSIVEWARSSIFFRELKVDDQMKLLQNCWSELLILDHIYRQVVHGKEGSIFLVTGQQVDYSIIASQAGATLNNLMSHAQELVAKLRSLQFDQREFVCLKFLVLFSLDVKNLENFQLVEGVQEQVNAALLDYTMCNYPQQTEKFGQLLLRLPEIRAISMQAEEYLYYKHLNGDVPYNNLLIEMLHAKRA
Sequence of Disintegrin and metalloproteinase domain-containing protein 17 (P78536 whole entry, the tested form may be a part): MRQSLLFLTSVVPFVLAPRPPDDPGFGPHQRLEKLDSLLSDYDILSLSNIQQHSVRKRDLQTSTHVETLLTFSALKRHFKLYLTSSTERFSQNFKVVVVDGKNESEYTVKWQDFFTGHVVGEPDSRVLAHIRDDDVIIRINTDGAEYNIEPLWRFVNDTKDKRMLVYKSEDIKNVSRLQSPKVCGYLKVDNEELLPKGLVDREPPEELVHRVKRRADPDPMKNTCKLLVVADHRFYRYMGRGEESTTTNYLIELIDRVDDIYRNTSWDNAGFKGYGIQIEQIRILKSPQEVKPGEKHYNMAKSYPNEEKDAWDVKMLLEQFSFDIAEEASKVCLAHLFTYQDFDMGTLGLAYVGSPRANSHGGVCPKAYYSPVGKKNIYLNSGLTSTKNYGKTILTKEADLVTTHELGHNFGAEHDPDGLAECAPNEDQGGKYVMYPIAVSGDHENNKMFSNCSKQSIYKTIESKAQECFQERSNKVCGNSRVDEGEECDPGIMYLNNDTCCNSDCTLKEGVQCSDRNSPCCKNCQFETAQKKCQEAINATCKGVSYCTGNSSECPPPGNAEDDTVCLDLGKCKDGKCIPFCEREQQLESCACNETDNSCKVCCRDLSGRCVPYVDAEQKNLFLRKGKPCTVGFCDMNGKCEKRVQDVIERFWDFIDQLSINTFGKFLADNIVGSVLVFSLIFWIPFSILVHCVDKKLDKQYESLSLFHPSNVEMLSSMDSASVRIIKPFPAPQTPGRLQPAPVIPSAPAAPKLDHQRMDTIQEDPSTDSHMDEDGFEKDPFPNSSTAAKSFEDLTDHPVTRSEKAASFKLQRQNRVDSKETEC

COC(=O)Nc1cccc(OC(=O)Nc2cccc(C)c2)c1
AC50 [1]: 39.8 µM (inconclusive)

COC(=O)C(C(=O)OC)c1ncccc1[N+](=O)[O-]
EC50 (Insulin-degrading enzyme [2]): > 54.7 µM (inactive)
EC50 (Insulin-degrading enzyme [3]): > 54.7 µM (inactive)
IC50 (HEK293 [4]): > 89.1 µM (inactive)
EC50 (HEK293 [5]): > 55.9 µM (inactive)

O=C1C2C(c3ccccc3)C=CC(c3ccccc3)C2C(=O)N1c1ccncc1 (stereo not given)
IC50 (Beta Lactamase): 62.4 µM (inactive)
IC50 (Beta-lactamase [6]): 14.6 µM (inactive)
IC50 (Beta-lactamase [7]): > 59.6 µM (inactive)

CC(=O)OC[C@H]1O[C@@H](Sc2cccc3cccnc23)[C@H](OC(C)=O)[C@@H](OC(C)=O)[C@H]1OC(C)=O
AC50 [8]: 91.4 µM (active)

O=C(CSc1ccc(Br)c2cccc(Cl)c12)Nc1ccc(S(=O)(=O)Nc2nccs2)cc1
EC50 [9]: 28.6 µM (not active)
EC50 [10]: 61 µM (not active)
EC50 [11]: 84.2 µM (not active)
IC50 (CHO-K1): > 66.2 µM (inactive)
IC50 [12]: > 49.8 µM (inactive)
IC50 [13]: 1.43 µM (active)
IC50 [14]: 4.31 µM (active)
IC50 (Orexin receptor type 2 [15]): 31.5 µM (inactive)
IC50 (Orexin receptor type 2 [16]): > 50 µM (inactive)
IC50 [17]: 6.53 µM (active)
IC50 [18]: 25.8 µM (active)
IC50 [19]: > 69.5 µM (inactive)
IC50 [20]: > 69.5 µM (inactive)

CCCCNc1c(-c2ccc(OC)c(Sc3ccc(OC)cc3)c2)nc2ccccn12
AC50 [21]: 6 µM (active)
EC50 [22]: 32.2 µM (inactive)
AC50 [23]: 0.821 µM (active)
AC50 [24]: 48.4 µM (active)
AC50 [25]: 4.38 µM (active)
IC50 (Protein Wnt-3a): 11.5 µM (active)

CC(NC(C)c1ccccc1Cl)C(=O)Nc1cccc(S(=O)(=O)N2CCCCC2)c1 (stereo not given)
IC50 (CHO-K1): > 66.2 µM (inactive)
IC50 [12]: 48.8 µM (inactive)
IC50 [13]: 0.238 µM (active)
IC50 [14]: 3.25 µM (active)
IC50 (Orexin receptor type 2 [15]): 18.9 µM (inactive)
IC50 (Orexin receptor type 2 [16]): > 50 µM (inactive)

COC1C(OC(=O)/C=C/C=C/C=C/C=C/C(=O)O)CCC2(CO2)C1C1(C)OC1CC=C(C)C.c1ccc(Nc2ccccc2)cc1 (stereo not given)
IC50 [26]: 94.5 µM (inactive)

O=C(CSc1nc(N2CCOCC2)nc(N2CCOCC2)n1)Nc1ccc([N+](=O)[O-])cc1
EC50 (Insulin-degrading enzyme [2]): > 54.7 µM (inactive)
EC50 (Insulin-degrading enzyme [3]): > 54.7 µM (inactive)
IC50 (HEK293 [4]): > 89.2 µM (inactive)
EC50 (HEK293 [5]): 21.2 µM (inactive)

Cc1cccc(NC(=O)COC(=O)CN2C(=O)c3ccccc3C2=O)c1C
IC50 [27]: 46.7 µM (inactive)
IC50 (Steroidogenic factor 1): 5.33 µM (active)
IC50 [28]: 35.9 µM (inactive)

COc1ccc(Nc2c3ccccc3nc3ccccc23)cc1
AC50 [29]: 0.016 µM (active)
AC50 [30]: 7.04 µM (active)
AC50 [31]: 1.9 µM (active)
